Laboratory results reported in patent publication US20110106000A1, “Nitric Oxide Compositions and Devices and Methods for Cosmesis” (MICROPHARMA LIMITED, priority 2008, published 2011).

Key:
porcine liver esterase = assay: Enzymatic generation of gNO with porcine liver esterase, sodium nitrite and ester substrates; format: biochemical; conditions: for substrate ranking for porcine liver esterase (gNO generation): FIG. 31, measured hourly; for gNO production: porcine liver esterase, sodium nitrite
Description: (§1) Enzymatic Generation of gNO: A 200 μl reaction solution was prepared by combining water, an acetate ester (ethyl acetate, isobutyl acetate, octyl acetate) or a triglyceride such as triacetin (glyceryl triacetate), sodium nitrite, and an esterase (porcine liver esterase, rhyzopus oryzae esterase) or a lipase (porcine pancreatic lipase, candida rugosa lipase). The solution was then added to a 2 ml vial, which was closed tightly with a septum cap. The head gas was sampled every hour from the reaction containing vials in order to determine gNO concentrations.

candida rugosa lipase = assay: Enzymatic generation of gNO with candida rugosa lipase, sodium nitrite and ester substrates; format: biochemical
Description: as §1

SMILES	substrate ranking for porcine liver esterase (gNO generation) (porcine liver esterase)	gNO production (porcine liver esterase; 0.5% triacetin in the assay) [ppmV]	gNO production (porcine liver esterase; 1% triacetin in the assay)	gNO production (porcine liver esterase; over the 6 hour experiment) [ppmV]	nitric oxide production (in words) (candida rugosa lipase; candida rugosa lipase tested against four substrates)	gNO production (candida rugosa lipase; candida rugosa lipase, sodium nitrite, one hour after the reaction was started) [ppmV]
CCOC(C)=O [ethyl acetate]	best substrates					
CC(=O)OCC(COC(C)=O)OC(C)=O [triacetin, glyceryl triacetate]	best substrates	≤ 200	up to 250 ppmV	> 350	able to produce high amounts of nitric oxide	≥ 200
